pIC50, pKi: −log10 of the molar value. Each block holds one compound with its values, some of them ahead of it. Activity calls are given as the source filed them. The calls are words filed in the database; no cut-off is given here.
Legend:
[1] = target: T1, Geranylgeranyl transferase type-2 (Homo sapiens) (UniProt P53611+Q92696); experiment: Inhibition of RabGGTase in HEK293 cells assessed as reduction in geranylgeranylation of Rab5b protein at 20 uM incubated for 48 hrs by SDS-PAGE and immunoblot analysis; type: cell-based
[2] = target: T1, Geranylgeranyl transferase type-2 (Homo sapiens); experiment: Inhibition of RabGGTase in HEK293 cells assessed as increase in Rab5b protein in soluble fraction at 5 to 20 uM incubated for 48 hrs by SDS-PAGE and immunoblot analysis; type: cell-based
[3] = Inhibition of rat recombinant geranylgeranyltransferase type I expressed in Escherichia coli assessed as reduction in geranylgeranylation of RhoA incubated for 30 mins in presence of [3H]GGPP by scintillation counting assay relative to control
[4] = target: T1, Geranylgeranyl transferase type-2 (Homo sapiens); experiment: Uncompetitive type inhibition of RabGGTase (unknown origin) using fixed Rab7 as substrate protein and varying [3H]geranylgeranyl pyrophosphate incubated for 20 mins by scintillation counting assay; type: protein-complex assay
[5] = target: T2, Geranylgeranyl transferase type-2 (Homo sapiens, UniProt P53611+Q92696); experiment: Competitive type inhibition of RabGGTase (unknown origin) using varying Rab7 as substrate protein and fixed [3H]geranylgeranyl pyrophosphate incubated for 20 mins by scintillation counting assay; type: protein-complex assay
T2 sequence (P53611 whole entry): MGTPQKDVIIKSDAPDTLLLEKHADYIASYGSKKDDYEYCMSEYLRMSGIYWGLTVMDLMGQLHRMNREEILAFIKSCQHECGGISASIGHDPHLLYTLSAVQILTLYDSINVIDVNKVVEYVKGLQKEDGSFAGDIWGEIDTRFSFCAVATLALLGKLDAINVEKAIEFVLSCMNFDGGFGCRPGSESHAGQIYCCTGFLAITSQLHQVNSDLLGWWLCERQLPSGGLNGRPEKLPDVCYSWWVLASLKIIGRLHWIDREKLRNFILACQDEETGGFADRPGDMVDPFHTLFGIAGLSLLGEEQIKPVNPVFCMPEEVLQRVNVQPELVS
T2 sequence (Q92696 whole entry): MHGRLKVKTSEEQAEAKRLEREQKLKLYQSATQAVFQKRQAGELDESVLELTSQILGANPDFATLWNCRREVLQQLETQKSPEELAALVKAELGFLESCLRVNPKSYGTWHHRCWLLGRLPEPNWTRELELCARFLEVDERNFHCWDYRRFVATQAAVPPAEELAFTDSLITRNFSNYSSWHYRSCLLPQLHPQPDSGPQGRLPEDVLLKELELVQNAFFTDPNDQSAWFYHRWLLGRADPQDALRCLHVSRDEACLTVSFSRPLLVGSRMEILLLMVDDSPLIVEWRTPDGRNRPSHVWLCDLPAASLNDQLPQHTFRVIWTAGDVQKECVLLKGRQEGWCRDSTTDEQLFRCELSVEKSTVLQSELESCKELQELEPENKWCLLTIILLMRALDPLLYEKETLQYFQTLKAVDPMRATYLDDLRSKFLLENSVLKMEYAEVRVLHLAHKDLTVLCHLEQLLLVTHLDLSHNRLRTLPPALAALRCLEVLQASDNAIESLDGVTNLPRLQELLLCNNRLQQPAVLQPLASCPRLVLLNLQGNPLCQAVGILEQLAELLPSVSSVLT

[6] = target: Protein farnesyltransferase (Rattus norvegicus, UniProt Q02293+Q04631); experiment: Inhibition of rat recombinant FTase alpha/beta expressed in Escherichia coli using K-Ras4B as a substrate as and [3H]farnesyl pyrophosphate incubated for 30 mins by scintillation counting assay
[7] = target: Protein farnesyltransferase (Homo sapiens) (UniProt P49354+P49356); experiment: Inhibition of FTase in HEK293 cells assessed as reduction in H-ras farnesylation at […] 10 uM incubated for 48 hrs by SDS-PAGE and immunoblot analysis; type: cell-based
[8] = target: T1, Geranylgeranyl transferase type-2 (Homo sapiens); experiment: Inhibition of RabGGTase in HEK293 cells assessed as reduction in geranylgeranylation of Rab5b protein at 5 to 20 uM incubated for 48 hrs by SDS-PAGE and immunoblot analysis; type: cell-based
[9] = target: T2, Geranylgeranyl transferase type-2; experiment: Inhibition of RabGGTase (unknown origin) using YPTI as substrate protein and [3H]geranylgeranyl pyrophosphate incubated for 20 mins by scintillation counting assay; type: protein-complex assay
HEK293 = experiment: Inhibition of geranylgeranyltransferase type I in HEK293 cells expressing Myc-HA-tagged Rheb-WT assessed as effect on unprenylated Rap1 accumulation at 5 to 20 uM incubated for 48 hrs by SDS-PAGE and immunoblot analysis; type: cell-based; details: Homo sapiens
[10] = Antiproliferative activity against human SEMK2 cells assessed as inhibition of cell proliferation incubated for 6 days by CCK8 assay; type: functional, cell-based; details: SEMK2, 144 h
K562 [11] = experiment: Induction of cell cycle arrest in human K562 cells assessed as reduction in accumulation at S phase incubated for 48 hrs by flow cytometry; type: functional, cell-based
HPAC = experiment: Antiproliferative activity against human HPAC cells assessed as inhibition of cell proliferation incubated for 72 hrs by CCK8 assay; type: functional, cell-based
Jurkat = experiment: Antiproliferative activity against human Jurkat cells assessed as inhibition of cell proliferation incubated for 72 hrs by CCK8 assay; type: functional, cell-based
MCF7 = experiment: Antiproliferative activity against human MCF7 cells assessed as inhibition of cell proliferation incubated for 6 days by CCK8 assay; type: functional, cell-based
CFPAC-1 = experiment: Antiproliferative activity against human CFPAC-1 cells assessed as inhibition of cell proliferation incubated for 72 hrs by CCK8 assay; type: functional, cell-based; details: CFPAC-1, 72 h
ASPC1 = experiment: Antiproliferative activity against human AsPC1 cells assessed as inhibition of cell proliferation incubated for 6 days by CCK8 assay; type: functional, cell-based; details: ASPC1, 144 h
MIA PaCa-2 = experiment: Antiproliferative activity against human MIAPaCa2 cells assessed as inhibition of cell proliferation incubated for 72 hrs by CCK8 assay; type: functional, cell-based; details: MIA PaCa-2, 72 h
[12] = Competitive inhibition of rat recombinant geranylgeranyltransferase type I expressed in Escherichia coli assessed as reduction in geranylgeranylation of RhoA incubated for 30 mins in presence of varying level of [3H]GGPP and fixed RhoA levels by scintillation counting assay relative to control
BT-474 = experiment: Antiproliferative activity against human BT474 cells assessed as inhibition of cell proliferation incubated for 72 hrs by CCK8 assay; type: functional, cell-based; details: BT-474, 72 h
Capan-2 = experiment: Antiproliferative activity against human Capan2 cells assessed as inhibition of cell proliferation incubated for 72 hrs by CCK8 assay; type: functional, cell-based; details: Capan-2, 72 h
PANC-1 = experiment: Antiproliferative activity against human PANC1 cells assessed as inhibition of cell proliferation incubated for 72 hrs by CCK8 assay; type: functional, cell-based; details: PANC-1, 72 h
K562 [13] = experiment: Induction of cell cycle arrest in human K562 cells assessed as accumulation at G1 phase incubated for 48 hrs by flow cytometry; type: functional, cell-based

inhibition [1]: Active
inhibition [2]: Active
pIC50 [3]: < 4.30
inhibition [4]: Active
pKi [5]: 5.87
pIC50 [6]: < 4.00
inhibition [7]: inactive
inhibition [8]: Active
pIC50 [9]: 5.68
Structure (SMILES): CCCCCCS[C@H]1[C@@H](C(=O)O)[C@H](c2ccc(Br)cc2)N(S(=O)(=O)c2ccc(C)cc2)[C@@H]1CCC
inhibition (HEK293): inactive

pIC50 (Jurkat): 5.89
pIC50 (MCF7; MCF7, 144 h): 5.19
pIC50 (ASPC1): < 4.70
pIC50 (MIA PaCa-2): 4.86
pIC50 [12]: 4.90
pIC50 (BT-474): 4.94
pIC50 (PANC-1): 4.90
Structure (SMILES): Cc1ccccc1S(=O)(=O)N1[C@@H](c2ccc(Cl)cc2)C(COCC(=O)N[C@@H](Cc2ccccc2)C(N)=O)=C[C@H]1C(C)(C)C
pIC50 [10]: 4.85
Activity (K562 [11]): Dose-dependent effect
pIC50 (HPAC): 4.93
inhibition (MCF7): Dose-dependent effect
pIC50 (CFPAC-1): 5.09
pIC50 (Capan-2): 4.95
Activity (K562 [13]): Dose-dependent effect

From ChEMBL document CHEMBL4421722, “Inhibitors of protein prenyltransferases” (2013)
